# Experimental data: patent US9707239B2, “Compounds that modulate oxidative stress” (vTv Therapeutics LLC, priority 2011, dated 2017)
# Entries after “also recorded” stand apart in the source; their conditions may differ.
# Columns and labels:
# human Bach1 = test: MARE controlled luciferase reporter gene assay in HepG2 cells with or without Bach1 expression; format: cell-based; settings: transient transfection, with or without Bach1 expressing plasmid, FIG. 7
# Description: The ability of Compound 13 to act in a manner similar to CoPP provides evidence for the hypothesis that Bach1 activity is being modulated by the compounds. […] To that end, expression vectors were prepared which contained the HMOX1 mARE promoter element recognized by both Bach1 and Nrf2. This element was placed in control of the reporter gene luciferase. Under conditions of transient transfection of HepG2 cells, the reporter has a low level of basal activity due to the relative ratio of Bach1 and Nrf2 found in the cell. Co-transfection with a Bach1 expressing plasmid leads to repression of luciferase activity. Therefore, one can test whether the compounds can increase the level of luciferase in the cells, thus overcoming Bach1 repression. […] Thus, the tested compound is able to overcome suppression by additional Bach1.
# HMOX1 [1] = test: HMOX1 induction in human bone marrow-derived mesenchymal stem cells (Western blotting); format: cell-based; settings: BMMSC, 3 and 10 days of exposure, FIG. 9
# Description: Previous work has shown that HMOX1 expression can suppress the differentiation of human bone marrow mesenchymal stem cells (BMMSC) into adipocytes, a process termed adipogenesis [Li et al., Diabetes 57(6):1526-1535 (2008)]. As such, we tested Bach1 modulators for the ability to suppress BMMSC differentiation into adipocytes in the presence of high glucose containing media. Two Bach1 modulators and a null compound were tested to determine the ability of the compounds to induce HMOX1 after 3 and 10 days of exposure to compound.
# NHLF cells [2] = test: Cytoprotection of cisplatin (CDDP)-treated NHLF cells (propidium iodide staining); format: cell-based; settings: NHLF cells, compound 24 hours prior to cisplatin exposure, FIG. 8
# Description: (§1) A key outcome of Bach1 derepression and Nrf2 activation are the induction of cytoprotective genes. A method to test such cytoprotection is to assess the ability of a compound to protect normal human cells such as lung fibroblasts from toxicity due to cisplatin exposure. A model of cellular cytoprotection was established whereby normal human lung fibroblasts were treated with Bach1 modulators and then subsequently exposed to cisplatin. NHLF cells are very sensitive to cisplatin exposure; following a dose of 200 uM cisplatin, >90% of NHLF cells are propidium iodide positive, a measure of cell death.
# [3] = test system: human bone marrow mesenchymal stem cells (BMMSC); test: Differentiation of bone marrow mesenchymal stem cells to adipocytes (Oil Red staining); format: cell-based; settings: high glucose, 21 days continuous exposure, FIG. 10
# From the text: In this assay, the cells are continuously exposed to compound for 21 days and then tested for the presence of oil-Red staining lipid droplets.
# HMOX1 [4] = test: HMOX1 induction in NHLF cells in the cisplatin cytoprotection model; format: cell-based, human; settings: compound 24 hours prior to cisplatin, FIG. 8
# Description: as §1
# HMOX1 [5] = test: Effect of NAC on compound induction of HMOX gene expression; format: cell-based, human; settings: NHLF cells pretreated with 5 mM NAC 1 hr, compound 6 h, FIG. 4
# Description: NHLF cells were grown to 80% confluency and harvested by washing once with HEPES and then trypsinizing. Equal numbers (7×10^4 cells per well) of NHLF cells were plated in 96 well tissue culture (Corning) plates. Cells were incubated overnight in FGM-2 medium prior to exposure to compound. Cells were pretreated with 5 mM N-acetyl cysteine for 1 hr. Cells were treated with either DMSO or compound for 6 h. Preparation of cell lysates was carried out according to Quantigene Reagent system 2.0 protocol (Panomics). Heme oxygenase mRNA induction was detected from cell lysate using the Quantigene Plex 2.0 Assay Kit (Panomics) on the Luminex platform (BIO-RAD). Expression of GAPDH mRNA was used as the internal control for the Quantigen Plex 2.0 Assay. Heme oxygenase data represents the fold change, normalized to control values, above DMSO treated cells.
# A further test of the hypothesis that Compound 13 induces HMOX1 with minimal alteration of cellular redox levels or chemical reactivity was carried out by treating cells with N-acetyl cysteine (NAC). This compound acts to restore cellular glutathione levels and thus prevent oxidative stress. The degree to which NAC can suppress HMOX1 induction is an indicator of the amount of chemical reactivity or ROS stress that a compound is imposing on the cell and thus activating phase II gene transcription. […] Coupled with the data shown in FIG. 3, it is concluded that Compound 13 induces HMOX1 with minimal elevation of ROS or NAC-sensitive chemical reactivity.
# Nrf2 = test: HMOX1 mRNA induction after Nrf2 siRNA silencing; format: cell-based, human; settings: NHLF cells, 50 nM siRNA 48 hours, FIG. 5
# Description: Small interfering RNA targeting Nrf-2 (cat# SI03246614) or KEAP-1 (cat# SI03246439) were obtained from Qiagen at 20 nmol/tube. Negative control siRNA (cat#1027280) was also obtained from Qiagen. Lyophilized siRNA in each tube was resuspended with 1 ml of the provided siRNA Suspension Buffer to make a stock solution of 20 μM and tubes were heated at 90° C. for one minute and then at 37° C. for one hour prior to initial use.
# Normal human lung fibroblasts were plated at 5000 cells/well in 96-well plates and allowed to attach. Prior to experiments, well s containing the cells were refreshed with 30 μl of complete growth medium. For each siRNA type, a 4× concentration (200 nM) of siRNA was prepared by adding 11 μl of siRNA stock into 1.1 ml of serum-free medium containing 9 μl/ml of SILENTFECT Lipid Reagent (BioRad, cat#170-3361). This solution was incubated at room temperature for 20 minutes prior to adding 10 μl into each well for a final concentration of 50 nM siRNA. Cells were incubated with siRNA for 48 hours, after which they were treated with compound for either 5 hours (QuantiGene RNA assay) or 15 hours (protein immunofluorescence assay).
# The predicted response profile is that silencing of Nrf2 should reduce the amount of HMOX1 induction by Compound 13 and other HMOX1 inducers that are electrophiles or reactive compounds. To that end, Compound 13 and other tool compounds were tested in cells that were treated with siRNA directed to Nrf2. Following gene silencing with specific siRNA or control siRNA, the ability of tool compounds to induce HMOX1 mRNA was determined.
# NHLF cells [6] = test: ROS measurements (H2DCF-DA imaging); format: cell-based, human; settings: 1 hr, cell-by-cell imaging, FIG. 3A/3B
# Description: Secondary growth of NHLF cells were used for all assays. Cells were cultured as above. Cells were plated into 384-well BD-Optilux Plates at 2,000 cells/well and cultured overnight at 37° C. and 5% CO2. The following day, cell were washed and 2,7-dihydrodichlorofluorescin diacetate (H2DCF-DA), 10 μM ferric ammonium citrate (FAC), and Hoechst stain were added to cells for 30 min. The cells were washed once with PBS to remove any H2DCF-DA not taken up by cells. Test compounds were prepared in FBM-2 media at the desired concentrations. The plates and stain-treated cells were incubated with test compounds for 1 hr at 37° C. and 5% CO2. Following the incubation period, ROS generation was determined by imaging the cells on a GE INcell 1000 imager (Hoechst Ex. 360 Em. 535; H2DCF-DA 488 Ex. 480 Em. 535). ROS levels were determined and quantified using GE IN Cell Analyzer Software.
# In addition to gene profiling, the requirement for ROS generation or chemical reactivity was tested. ROS generation was measured using an automated imaging technique. Compound 13 as well as two other compounds that were found in the screening set were tested in this experiment. Untreated NHLF cells, NHLF cells treated with the HMOX1 inducer CoPP (a negative control), and NHLF cells treated with curcumin or celestrol (positive controls) were included as controls. […] Further experiments were also conducted on chemical derivatives of Compound 13. In those experiments, all compounds tested were found not to induce an elevation of ROS levels in the cell (FIG. 3B). Thus, Compound 13 and related compounds represent a class of agents that elevate HMOX1 production without elevating ROS production.
SMILES,luciferase activity of HMOX1 mARE reporter (human Bach1),HMOX1 induction by Western blotting (HMOX1 [1]),protection against cisplatin toxicity (NHLF cells [2]),inhibition of adipogenesis (Oil Red staining) [3],HMOX1 induction (HMOX1 [4]),effect of N-acetyl cysteine (NAC) on HMOX1 induction (HMOX1 [5]),HMOX1 mRNA induction with siRNA directed to Nrf2 (Nrf2),ROS production (in words) (NHLF cells [6])
"CNC(=O)c1ccc2[nH]c(Nc3nc4ccc(OC(F)(F)F)cc4s3)nc2c1 [Compound 7, 2-(6-Trifluoromethoxy-benzothiazol-2-ylamino)-1H-benzoimidazole-5-carboxylic acid methylamide]",able to induce luciferase activity in the presence or absence of Bach1 protein expression; also recorded: can overcome this repression,–,–,–,–,–,–,–
"CN(C)C(=O)CNC(=O)c1ccc2c(c1)nc(Nc1nc3ccc(OC(F)(F)F)cc3s1)n2C [Compound 9, 1-Methyl-2-(6-trifluoromethoxy-benzothiazol-2-ylamino)-1H-benzoimidazole-5-carboxylic acid dimethylcarbamoylmethyl-amide]",–,induced HMOX1,near-total cellular protection; also recorded: protect the cells from CDDP-mediated toxicity,suppress Oil-O red staining; also recorded: inhibited stem cell differentiation,induced HMOX1,–,–,–
"Cn1c(Nc2nc3ccc(OC(F)(F)F)cc3s2)nc2cc(C(=O)NCCOCCO)ccc21 [Compound 10, 1-Methyl-2-(6-trifluoromethoxy-benzothiazol-2-ylamino)-1H-benzoimidazole-5-carboxylic acid [2-(2-hydroxy-ethoxy)-ethyl]-amide]",–,induced HMOX1,near-total cellular protection; also recorded: protect the cells from CDDP-mediated toxicity,suppress Oil-O red staining; also recorded: inhibited stem cell differentiation,induced HMOX1,–,–,–
"Cn1c(Nc2nc3ccc(Cl)cc3s2)nc2cc(C(=O)NCC(=O)O)ccc21 [Compound 12, {[2-(6-Chloro-benzothiazol-2-ylamino)-1-methyl-1H-benzoimidazole-5-carbonyl]-amino}-acetic acid]",–,failed to induce HMOX1,failed to protect NHLF cells against cisplatin toxicity; also recorded: failed to protect cells from CDDP-mediated cytotoxicity,fails to inhibit adipogenesis; also recorded: failed to do so,inactive HMOX1 inducers; also recorded: did not induce HMOX1,–,–,–
"CC(C)(C)N1C(=O)C=C(c2cccc(N(CC(=O)c3ccc(Cl)cc3Cl)C(=O)Cc3ccc(Br)cc3)c2)S1(=O)=O [Compound 14, 2-(4-Bromo-phenyl)-N-[3-(2-tert-butyl-1,1,3-trioxo-2,3-dihydro-1H-isothiazol-5-yl)-phenyl]-N-[2-(2,4-dichloro-phenyl)-2-oxo-ethyl]-acetamide]",–,–,–,–,–,inhibited nearly fully by NAC; also recorded: fully suppressed in the presence of NAC,affected by the presence of the siRNA for Nrf2; also recorded: requires Nrf2 for full induction of HMOX1 mRNA,elevated ROS levels to a greater degree than did Compound 13; also recorded: little increase in ROS production
"CC(C)(C)N1C(=O)C=C(c2cccc(-n3cc(-c4ccc(Cl)cc4Cl)nc3Cc3ccc(Br)cc3)c2)S1(=O)=O [Compound 15, 5-{3-[2-(4-Bromo-benzyl)-4-(2,4-dichloro-phenyl)-imidazol-1-yl]-phenyl}-2-tert-butyl-1,1-dioxo-1,2-dihydro-isothiazol-3-one]",–,–,–,–,–,inhibited nearly fully by NAC; also recorded: fully suppressed in the presence of NAC,affected by the presence of the siRNA for Nrf2; also recorded: requires Nrf2 for full induction of HMOX1 mRNA,elevated ROS levels to a greater degree than did Compound 13; also recorded: little increase in ROS production
